From US9937235B2, “Lipidated peptides as anti-obesity agents” (USTAV ORGANICKE CHEMIE A BIOCHEMIE AKADEMIE VED CR, V.V.I, priority 2012, dated 2018)
Where a SMILES comes first, the peptide text is derived from it. Where no end group is shown, it is not given here. [ ]: non-standard residue; d: D form. The star is where a group is joined. Phe(F5) = N[C@@H](Cc1c(F)c(F)c(F)c(F)c1F)C(=O)O; Palmitoyl = CCCCCCCCCCCCCCCC(=O)*; Myristoyl = CCCCCCCCCCCCCC(=O)*; Nle = CCCC[C@H](N)C(=O)O; Dap = NC[C@H](N)C(=O)O

Columns and labels:
fasted C57BL/6 mice [1] = assay: Food intake in fasted mice after SC administration; assay type: in vivo, mouse; details: for food intake / % control: SC administration, dose not stated for these substances; for % control: food intake vs saline
Outline: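 Male C57BL/6 mice, food-deprived 17 h, received saline, PrRP or lipidated analogs either SC at 1-10 mg/kg or ICV into the third ventricle at 4 nmol/mouse.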

[2] = biological target: T1, human PrRP receptor, GPR10 (Homo sapiens, UniProt P49683); assay: Competitive binding to CHO cells with transfected human GPR10; details: CHO cells with transfected human GPR10, human ^125I—PrRP31
T1 construct: host or cells: CHO cells
T1 sequence (P49683 1-370): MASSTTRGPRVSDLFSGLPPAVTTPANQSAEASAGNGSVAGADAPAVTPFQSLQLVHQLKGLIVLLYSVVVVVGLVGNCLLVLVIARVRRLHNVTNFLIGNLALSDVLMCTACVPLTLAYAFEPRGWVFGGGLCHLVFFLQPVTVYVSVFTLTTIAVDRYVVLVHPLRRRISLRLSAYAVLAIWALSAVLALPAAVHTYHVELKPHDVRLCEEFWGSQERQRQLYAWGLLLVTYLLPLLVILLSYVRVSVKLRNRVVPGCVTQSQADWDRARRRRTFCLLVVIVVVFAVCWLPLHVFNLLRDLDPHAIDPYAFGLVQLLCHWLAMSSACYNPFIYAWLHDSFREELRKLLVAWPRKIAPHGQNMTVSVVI
Description: Competitive binding experiments were performed according to Motulsky and Neubig (Motulsky, A., et al., “Analyzing radioligand binding data,” Curr Protoc Neurosci, Chapter 7, Unit 7.5, 2002).
CHO cells with transfected human PrRP receptor, GPR10 (Perkin Elmer, USA) were grown on 24-well plates coated with polyethyleneimine. The cells were grown to the optimal density of 40-80 thousand cells per well. The following agents were used for the experiment: binding buffer (25 mmol·l^−1 Tris, pH 7.4; 118 mmol·l^−1 NaCl, 10 mmol·l^−1 MgCl2, 1 mmol·l^−1 CaCl2, 5.5 mmol·l^−1 glucose, 0.5 mg/ml BSA), unlabelled analogs of PrRP of final concentration within 10^−11 to 10^−4 mol·l^−1, and human ^125I—PrRP31 of final concentration of 5×10^−11 mol·l^−1.
(§1) Plates were incubated for 60 minutes at room temperature. After incubation, the cells were solubilized in 0.1 mol/l solution of NaOH and the radioactivity bound to the cells was counted using a γ-counter. The experiments were performed in duplicate and repeated at least three times.
For evaluation of competitive binding experiments, the program Graph Pad Prism Software (San Diego, Calif., USA) was used. A method of nonlinear regression assuming one-site binding was used.

[3] = biological target: T2, rat PrRP receptor (GPR10) in RC-4B/C cells (Rattus norvegicus, UniProt Q64121); assay: Competitive binding to rat pituitary RC-4B/C cells
T2 construct: host or cells: RC-4B/C rat pituitary cell line
T2 sequence (Q64121 1-370): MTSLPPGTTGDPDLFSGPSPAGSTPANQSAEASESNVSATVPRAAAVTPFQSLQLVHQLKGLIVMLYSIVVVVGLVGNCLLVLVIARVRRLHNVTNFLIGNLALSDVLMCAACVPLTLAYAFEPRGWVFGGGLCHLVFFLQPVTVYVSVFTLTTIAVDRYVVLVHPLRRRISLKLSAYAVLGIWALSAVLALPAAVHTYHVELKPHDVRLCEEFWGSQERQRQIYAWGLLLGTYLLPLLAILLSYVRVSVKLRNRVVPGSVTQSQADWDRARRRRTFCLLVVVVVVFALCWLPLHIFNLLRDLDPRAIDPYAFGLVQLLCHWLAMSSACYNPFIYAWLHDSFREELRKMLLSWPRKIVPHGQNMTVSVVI

fasted C57BL/6 mice [4] = details: central administration, Maixnerová et al., 2011; cited from earlier work
[5] = tested on: MAPK/ERK1/2 signaling pathway in RC-4B/C cells; assay: MAPK/ERK1/2 signaling in RC-4B/C cells (Western blot); assay type: cell-based, rat; details: 10^−6 mol·l^−1, 5 minute incubation
rats = details: ICV, third brain ventricle, Lawrence et al.; cited from earlier work
fasted C57BL/6 mice [6] = assay: Food intake in fasted mice after ICV administration; assay type: in vivo; details: 4 nmol/mouse; for % control: food intake vs saline
Description: Male C57BL/6 mice (An Lab, Prague 4) were bred in the accredited animal facility in the Institute of Organic Chemistry and Biochemistry, Czech Academy of Sciences, Prague, at the Institute of Molecular Genetics, Prague 4, at the temperature of 22±2° C. with access to food and water ad libitum. The day/night cycle was 12/12 hours (light turned on at 6:00 am). Animals were treated according to the Animal Protection Act (Act No. 246/1992). The males were fed standard chow diet St-1 (Mlýn Kocanda, Praha, Czech Republic) which contained 66% saccharides, 25% proteins and 9% lipids with a caloric value of 3.4 kcal/g.
The food was withdrawn 17 hours prior to injection of lipidated peptide and free access to water was maintained. The administration of saline, PrRP or lipidated analogs was performed either by SC injection at doses of 1-10 mg/kg (volume 0.2 ml/mouse), or by ICV using infusion pump (cannulae were inserted into the third brain ventricle 4 days before the experiment following the procedure of Maixnerová et al. (Maixnerová et al., 2011)). The single dose of peptide was 4 nmol/mouse (5 μl/mouse).
Fifteen minutes after the lipidated peptide administration, the mice were given pre-weighed food. The food was then weighed every 30 minutes for 5-10 hours. The administration of every dose was performed at least twice and one group of mice consisted of at least 6 mice. The results were presented as % of food intake as compared with the control group injected with saline.
Statistical evaluation was performed using program Graph-Pad Prism Software (San Diego, Calif., USA), and the one-way ANOVA with a subsequent Dunnettovým post-hoc test. The difference in food intake between mice injected with saline and mice injected with the examined peptide were considered statistically significant at P<0.05.

[7] = biological target: T2, rat PrRP receptor (GPR10) in RC-4B/C cells; details: Maletínská et al., 2011; cited from earlier work
[8] = biological target: T3, rat PrRP receptor in RC-4B/C cells (rat, UniProt Q64121 1-370); assay: competition with 125I-rat PrRP31 on RC-4B/C cells; Ki by Cheng-Prusoff
T3 construct: whole, on cells; also called the rat receptor; GPR10
T3 sequence (looked up): T2 sequence (Q64121 1-370)
Description: The rat pituitary cell line RC-4B/C (ATCC, Manassas, USA) was grown on 24-well plates which had their bottom coated with polyethyleneimine. The cells were grown to the optimal density of 300-450 thousand per well.
as §1

[9] = biological target: T3, rat PrRP receptor in RC-4B/C cells; assay: competition with 125I-human PrRP31 on RC-4B/C cells; Ki by Cheng-Prusoff
[10] = biological target: T3, rat PrRP receptor in RC-4B/C cells; assay: competition with 125I-rat PrRP31 on RC-4B/C cells
[11] = biological target: T4, human PrRP receptor, GPR10, transfected in CHO cells (human, UniProt P49683 1-370); assay: competition with 125I-human PrRP31 on CHO cells with transfected human GPR10
T4 construct: whole, on cells; also called human GPR10 receptor; the human receptor GPR10 in CHO cells
T4 sequence (looked up): T1 sequence (P49683 1-370)
Outline: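 Incubation lasted 60 min at room temperature. Cells were then solubilised in 0.1 mol/l NaOH and bound radioactivity γ-counted; duplicates, at least three repeats.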

With `CCCCCCCCCCCCCCCC(=O)N[C@@H](CO)C(=O)N[C@@H](CCCNC(=N)N)C(=O)N[C@@H](C)C(=O)N[C@@H](Cc1c[nH]cn1)C(=O)N[C@@H](CCC(N)=O)C(=O)N[C@@H](Cc1c[nH]cn1)C(=O)N[C@@H](CO)C(=O)N[C@@H](CCCC)C(=O)N[C@@H](CCC(=O)O)C(=O)N[C@H](C(=O)N[C@@H](CCCNC(=N)N)C(=O)N[C@H](C(=O)N1CCC[C@H]1C(=O)N[C@@H](CC(=O)O)C(=O)N[C@H](C(=O)N[C@@H](CC(N)=O)C(=O)N1CCC[C@H]1C(=O)N[C@@H](C)C(=O)N[C@@H](Cc1c[nH]c2ccccc12)C(=O)N[C@@H](Cc1ccc(O)cc1)C(=O)N[C@H](C(=O)NCC(=O)N[C@@H](CCCNC(=N)N)C(=O)NCC(=O)N[C@H](C(=O)N[C@@H](CCCNC(=N)N)C(=O)N1CCC[C@H]1C(=O)N[C@H](C(=O)NCC(=O)N[C@@H](CCCNC(=N)N)C(=O)N[C@@H](Cc1c(F)c(F)c(F)c(F)c1F)C(N)=O)C(C)C)[C@@H](C)CC)[C@@H](C)O)[C@@H](C)CC)[C@@H](C)O)[C@@H](C)O` [Analog 33] (Palmitoyl-SRAHQHS[Nle]ETRTPDINPAWYTGRGIRPVGR[Phe(F5)]-NH2) the “Food intake in mice (5 mg/kg SC) % saline-treated group (45 min)” value (fasted C57BL/6 mice [1]; fasted C57BL/6 mice, 5 mg/kg SC, 45 min) was 41%, the Ki [2] was 1.92 ± 0.53 nM and the Ki ([3]; rat RC-4B/C cells, Table 5, read-out: C-4B/C cells ^25I-rat PrRP31 Ki) was 0.51 ± 0.08 nM.

In the case of “PrRP13: tridecapeptide PrRP13 (containing amino acids 18 to 31 of PrRP31) (AWYASRGIRPVGRF; ends and bridges not checked; UniProt P81277 40-53, looked up, fragment)”, the “anorexigenic activity in mice” value (fasted C57BL/6 mice [4]) is given as “not sufficient for maintaining the anorexigenic activity”.

For “SRAHQHSMETRTPDINPAWYTGRGIRPVGRF-NH2 [PrRP31, reference compound]”, the ERK signaling [5] was “agonist”, the “food intake” value (fasted C57BL/6 mice [1]; 45 minutes) was 0.32 g and the “% control” value (fasted C57BL/6 mice [1]; 45 minutes) was 100%. For the same molecule, the “food intake” value (fasted C57BL/6 mice [1]; 300 minutes) was 1.15 g, the “% control” value (fasted C57BL/6 mice [1]; 300 minutes) was 105% and the “food intake in rats” value (rats) was “significant lowering of food intake”. For the same molecule, the “food intake” value (fasted C57BL/6 mice [6]; 45 minutes) was 0.42 g, the “% control” value (fasted C57BL/6 mice [6]; 45 minutes) was 75% and the “food intake” value (fasted C57BL/6 mice [6]; 300 minutes) was 1.37 g. For the same molecule, the “% control” value (fasted C57BL/6 mice [6]; 300 minutes) was 104% and the “% of PrRP31 binding” value ([3]; ^125I-rat PrRP31, RC-4B/C cells) was 100%.

For “[Tyr^31]PrRP20: N-acetylated PrRP20 analog, C-terminal phenylalanine replaced by tyrosine (Maletínská et al., 2011) (Ac-TPDINPAWYASRGIRPVGRY-NH2; ends and bridges not checked; UniProt P81277 34-53, looked up, variant F31Y)”, the “Kb of binding to the pituitary cell line RC-4B/C” value [7] is given as “comparable to values for PrRP31 and PrRP20”.

B1: analog no. 11 (peptide)
peptide: [Dap]RTHRHS[Nle]EIRTPDINPAWYASRGIRPVGRF-NH2
modifications: N-terminus assumed
SMILES: CCCC[C@H](NC(=O)[C@H](CO)NC(=O)[C@H](Cc1c[nH]cn1)NC(=O)[C@H](CCCNC(=N)N)NC(=O)[C@H](Cc1c[nH]cn1)NC(=O)[C@@H](NC(=O)[C@H](CCCNC(=N)N)NC(=O)[C@@H](N)CN)[C@@H](C)O)C(=O)N[C@@H](CCC(=O)O)C(=O)N[C@H](C(=O)N[C@@H](CCCNC(=N)N)C(=O)N[C@H](C(=O)N1CCC[C@H]1C(=O)N[C@@H](CC(=O)O)C(=O)N[C@H](C(=O)N[C@@H](CC(N)=O)C(=O)N1CCC[C@H]1C(=O)N[C@@H](C)C(=O)N[C@@H](Cc1c[nH]c2ccccc12)C(=O)N[C@@H](Cc1ccc(O)cc1)C(=O)N[C@@H](C)C(=O)N[C@@H](CO)C(=O)N[C@@H](CCCNC(=N)N)C(=O)NCC(=O)N[C@H](C(=O)N[C@@H](CCCNC(=N)N)C(=O)N1CCC[C@H]1C(=O)N[C@H](C(=O)NCC(=O)N[C@@H](CCCNC(=N)N)C(=O)N[C@@H](Cc1ccccc1)C(N)=O)C(C)C)[C@@H](C)CC)[C@@H](C)CC)[C@@H](C)O)[C@@H](C)CC
notes: analog of human PrRP31
Molecule B1 has a Ki [8] of 2.28 nM and a Ki [9] of 2 nM.

B2: Human PrRP31 (peptide)
peptide: SRTHRHSMEIRTPDINPAWYASRGIRPVGRF-NH2
notes: also called hPrRP31; analog no; 50
For B2, the Ki [8] was 1.54 nM, the Ki [10] was 1.78 nM and the Ki [9] was 3.01 nM.

B3: myristoylated human PrRP20 (analog no. 55) (peptide)
peptide: Myristoyl-TPDINPAWYASRGIRPVGRF-NH2
SMILES: CCCCCCCCCCCCCC(=O)N[C@H](C(=O)N1CCC[C@H]1C(=O)N[C@@H](CC(=O)O)C(=O)N[C@H](C(=O)N[C@@H](CC(N)=O)C(=O)N1CCC[C@H]1C(=O)N[C@@H](C)C(=O)N[C@@H](Cc1c[nH]c2ccccc12)C(=O)N[C@@H](Cc1ccc(O)cc1)C(=O)N[C@@H](C)C(=O)N[C@@H](CO)C(=O)N[C@@H](CCCNC(=N)N)C(=O)NCC(=O)N[C@H](C(=O)N[C@@H](CCCNC(=N)N)C(=O)N1CCC[C@H]1C(=O)N[C@H](C(=O)NCC(=O)N[C@@H](CCCNC(=N)N)C(=O)N[C@@H](Cc1ccccc1)C(N)=O)C(C)C)[C@@H](C)CC)[C@@H](C)CC)[C@@H](C)O
notes: also called analog no; 13
B3 showed a Ki [11] of 4.33 nM, a Ki [8] of 0.41 nM and a Ki [10] of 0.48 nM. It also gave a Ki [9] of 0.66 nM.
